{"source": "patent US11471504B2", "about": "“Combination therapy for the treatment of cancer” (Yeda Research and Development Co. Ltd., priority 2017, dated 2022)", "key": {"[1]": {"tested_on": "BRAF and MEK inhibitor-resistant models", "conditions": "cited from earlier work"}, "[2]": {"tested_on": "nuclear translocation of ERK1/2", "assay": "ERK1/2 nuclear translocation, fluorescence microscopy, EPE-sensitive NRAS melanomas (63T, 83T, 120T, 60T)", "type": "cell-based, human", "conditions": "EPE-sensitive cells; serum starved, peptide 10 μM 2 h, TPA 100 nM 15 min", "description": "(§1) FIGS. 2A-B: The EPE peptide blocks the nuclear translocation in “sensitive” NRAS melanomas. The same seven cell lines selected previously, were serum starved (14 h), pre-treated with EPE or Scr peptide […], and stimulated with TPA (100 nM, 15 min) or left untreated (NS). Cells were then fixed and stained with αERK2 Abs and DAPI. […] (B) The effect of EPE peptide on the nuclear translocation of ERK1/2 is modest in resistant cells compared to (A). Bars represent average percentage of cells with mostly nuclear (N, red), nuclear and cytosolic (NC, black) or mostly cytosolic (C, white) staining. Error bars represent standard error of 2 or 3 independent experiments. Quantification was done by counting at least three fields with >150 cells.\n(§2) Fluorescence microscopy: Cells were seeded on coverslips coated with 0.001% w/v poly-L-Lysine (PLL) at 60% confluency. After treatments, cells were fixed in 4% paraformaldehyde/PBS^−/− for 20 min on ice surface, permeabilized with 0.1% Triton X-100/PBS^−/− for 5 min at 23° C., then blocked in 2% BSA/PBS^−/− for 30 min at 23° C. […] Slides were analyzed and photographed by a fluorescence microscope (Olympus BX51, x40). […]"}, "[3]": {"tested_on": "nuclear translocation of ERK1/2", "assay": "ERK1/2 nuclear translocation, fluorescence microscopy, EPE-resistant melanomas (110T, 39T, 103T)", "type": "cell-based, human", "conditions": "EPE-resistant cells; serum starved, peptide 10 μM 2 h, TPA 100 nM 15 min", "description": "as §1, §2"}, "[4]": {"tested_on": "cancer cell types, BRAF melanomas", "conditions": "cited from earlier work"}, "[5]": {"tested_on": "60T NRAS mutant melanoma cells", "conditions": "10 µM", "protocol": "(§9) (A) Effect of the EPE peptide on proliferation of metastatic melanoma cells. Thirty-six melanoma cell lines derived from metastatic tumor resections were treated with either EPE or scrambled (Scr) peptides (10 μM). […] Cell viability was measured by CellTiter-Glo reagent after 72 h of treatment. Bars represent percentage of growth respect to Scr peptide control ±S.E. of 3 independent experiments.\n(§10) Pathology-confirmed melanoma cell lines were derived from mechanically or enzymatically dispersed tumor cells, which were then cultured in RPMI-1640 supplemented with 10% FBS at 37° C. in 5% CO2 for 5-15 passages. All cell lines have tested negative for mycoplasma.\n(§11) Cell viability assay: Cells were seeded at a density of 4000 cells per well into 96-well plates in complete medium. After 24 h, medium was replaced by 1% FCS containing appropriate treatments. Fresh medium containing the same agents was replaced every day. After 96 h, cell proliferation was assessed using the CellTiter-Glo reagent (Promega). IC50 values were determined using GraphPad Prism."}, "[6]": {"tested_on": "110T NRAS mutant melanoma cells", "assay": "Cell viability assay (CellTiter-Glo), 110T", "type": "cell-based, human", "conditions": "10 μM, 72 h", "description": "(§3) (B) Effect of BRAF inhibitor vemurafenib on selected melanomas. […] All melanoma cells selected were resistant to BRAF inhibition.\n(§4) Dots represent triplicates for every concentration point. […] Viable cells were quantified using CellTiter-Glo reagent. […] Quantified levels are given under the blots. ImageJ was used for the quantification.\n(§5) All cell lines have tested negative for mycoplasma.\n(§6) IC50 values were determined using GraphPad Prism."}, "[7]": {"tested_on": "interaction of Importin7 with ERK1/2", "conditions": "cited from earlier work"}, "[8]": {"tested_on": "63T NRAS mutant melanoma cells", "conditions": "10 µM", "protocol": "as §9, §10, §11"}, "ERK1/2 signaling [9]": {"tested_on": "ERK1/2 signaling", "assay": "Western blot of ERK1/2 signaling, EPE-resistant melanomas (39T, 103T)", "type": "cell-based, human", "conditions": "EPE-resistant cells, 10 μM 2 h", "description": "(§7) FIGS. 3A-B: The EPE peptide reduces phosphorylation of nuclear targets in NRAS mutant melanomas. Two NRAS melanomas sensitive to EPE peptide (60T an 83T), and two EPE-resistant melanomas (39T and 103T), were serum starved (16 h), pretreated with EPE or Scr peptides (10 μM, 2 h), and stimulated with TPA (100 nM, 15 min) (+) or left untreated (−). […] (A) (Left) In the EPE-sensitive cells, the peptide reduced the phosphorylation of nuclear targets Elk1 and c-Myc in stimulated and basal state, while not affecting cytosolic target RSK. […] (B) Quantification of bands in (A). Bars represent average band density ratio of EPE stimulated samples (EPE+) compared to Scr stimulated samples (Scr+), ±S.E. of 2 or 3 independent experiments. Bands were quantified using ImagJ.\n(§8) Quantification of blots was done using ImageJ."}, "melanoma cell lines": {"tested_on": "melanoma cell lines", "assay": "Cell viability assay (CellTiter-Glo), panel of melanoma cell lines", "type": "cell-based, human", "conditions": "36 melanoma cell lines, peptide 10 μM, 72 h"}, "[10]": {"tested_on": "120T NRAS mutant melanoma cells", "assay": "Cell viability assay (CellTiter-Glo), 120T", "type": "cell-based, human", "conditions": "10 μM, 72 h"}, "[11]": {"tested_on": "39T NF1 mutant melanoma cells", "assay": "Cell viability assay (CellTiter-Glo), 39T", "type": "cell-based, human", "conditions": "10 μM, 72 h"}, "ERK1/2 signaling [12]": {"tested_on": "ERK1/2 signaling", "assay": "Western blot of ERK1/2 signaling, EPE-sensitive NRAS melanomas (60T, 83T)", "type": "cell-based, human", "conditions": "EPE-sensitive cells, 10 μM 2 h", "description": "as §7, §8"}, "[13]": {"tested_on": "83T NRAS mutant melanoma cells", "assay": "Cell viability assay (CellTiter-Glo), 83T", "type": "cell-based, human", "conditions": "10 μM, 72 h", "description": "as §3, §4, §5, §6"}}, "note": "“Also recorded” adds a separate entry of the source. Residues, ends and D or L forms follow the SMILES beside them. *: point of attachment. Myristoyl = CCCCCCCCCCCCCC(=O)*"}
{"compound": "O=C(Nc1ccc2[nH]nc(-c3ccncc3)c2c1)[C@@H]1CCN(CC(=O)N2CCN(c3ccc(-c4ncccn4)cc3)CC2)C1", "note": "[SCH772984]", "values": [{"measurement": "tumor growth", "setting": "[1]", "result": "showed benefits in reducing tumor growth"}]}
{"compound": "CCCCCCCCCCCCCC(=O)NCC(=O)N[C@@H](CCC(N)=O)C(=O)N[C@@H](CC(C)C)C(=O)N[C@@H](CC(N)=O)C(=O)N[C@@H](Cc1c[nH]cn1)C(=O)N[C@H](C(=O)N[C@@H](CC(C)C)C(=O)NCC(=O)N[C@H](C(=O)N[C@@H](CC(C)C)C(=O)NCC(=O)N[C@@H](CCC(=O)O)C(=O)N1CCC[C@H]1C(=O)N[C@@H](CCC(=O)O)C(=O)N[C@@H](CCC(N)=O)C(=O)N[C@@H](CCC(=O)O)C(=O)N[C@@H](CC(=O)O)C(=O)N[C@@H](CC(C)C)C(N)=O)[C@@H](C)CC)[C@@H](C)CC", "note": "[EPE peptide] (Myristoyl-GQLNHILGILGEPEQEDL-NH2)", "values": [{"measurement": "effect on stimulated nuclear translocation of ERK1/2", "setting": "[2]", "result": "disrupted; also recorded: significantly reduces"}, {"measurement": "effect on stimulated nuclear translocation of ERK1/2", "setting": "[3]", "result": "disrupted; also recorded: modest"}, {"measurement": "apoptosis", "setting": "[4]; BRAF melanomas", "result": "induces apoptosis"}, {"measurement": "proliferation of cancer cell types", "setting": "[4]; several cancer cell types", "result": "inhibit the proliferation"}, {"measurement": "sensitivity to the EPE peptide (percentage of viability compared to Scr peptide control)", "setting": "[5]", "result": "sensitive"}, {"measurement": "sensitivity to the EPE peptide (percentage of viability compared to Scr peptide control)", "setting": "[6]", "result": "resistant (resistant (above 80%))"}, {"measurement": "interaction of Importin7 with ERK1/2 and nuclear translocation of ERK1/2", "setting": "[7]", "result": "inhibited"}, {"measurement": "sensitivity to the EPE peptide (percentage of viability compared to Scr peptide control)", "setting": "[8]", "result": "sensitive"}, {"measurement": "activity of ERK1/2 (phosphorylation of activatory TEY motif and substrate RSK)", "setting": "ERK1/2 signaling [9]", "result": "did not inhibit"}, {"measurement": "phosphorylation levels of c-Myc", "setting": "ERK1/2 signaling [9]", "result": "slightly increased"}, {"measurement": "phosphorylation of Elk1", "setting": "ERK1/2 signaling [9]", "result": "no effect"}, {"measurement": "phosphorylation of RSK", "setting": "ERK1/2 signaling [9]", "result": "no effect"}, {"measurement": "sensitivity of metastatic melanoma cell lines to the EPE peptide (viability vs Scr peptide)", "setting": "melanoma cell lines", "result": "A subset of BRAF, NRAS and NF1 mutant melanomas were sensitive"}, {"measurement": "sensitivity to the EPE peptide (percentage of viability compared to Scr peptide control)", "setting": "[10]", "result": "sensitive"}, {"measurement": "sensitivity to the EPE peptide (percentage of viability compared to Scr peptide control)", "setting": "[11]", "result": "resistant (resistant (above 80%))"}, {"measurement": "activity of ERK1/2 (phosphorylation of activatory TEY motif and substrate RSK)", "setting": "ERK1/2 signaling [12]", "result": "did not inhibit"}, {"measurement": "phosphorylation of cytosolic target RSK", "setting": "ERK1/2 signaling [12]", "result": "not affecting"}, {"measurement": "phosphorylation of nuclear target Elk1", "setting": "ERK1/2 signaling [12]; basal and TPA-stimulated", "result": "reduced"}, {"measurement": "phosphorylation of nuclear target c-Myc", "setting": "ERK1/2 signaling [12]; basal and TPA-stimulated", "result": "reduced"}, {"measurement": "sensitivity to the EPE peptide (percentage of viability compared to Scr peptide control)", "setting": "[13]", "result": "sensitive"}]}
